# In patent publication US12653815B2, “Luminally-acting N-(piperidin-4-yl)benzamide derivatives” (Takeda Pharmaceutical Company Limited, priority 2020, dated 2026):
# Target: T1, human 5-HT4(b) receptor (Homo sapiens, UniProt Q13639)
# T1 construct: overexpressing the full-length human 5-HT4(b) receptor with an N-terminal FLAG tag; FLAG (N); host or cells: CHO-K1
# Assay: 5-HT4(b) agonist assay (cAMP accumulation)
# Type: cell-based
# Settings: CHO-K1 cells overexpressing full-length human 5-HT4(b) receptor; cAMP accumulation after 30 minutes at room temperature; 1 μM 5-HT as 100% activity
# Method: One may determine the activity of the compounds of Formula 1 using a variety of methods, including in vitro and in vivo methods. The ability of the example compounds to activate the 5-HT4(b) receptor may be determined using the following assay.
# Chinese hamster ovary (CHO-K1) cells overexpressing the full-length human 5-HT4(b) receptor with an N-terminal FLAG tag (Multispan Inc, Hayward, CA) are cultured per the manufacturer's protocol in 1:1 DMEM/F12 (Thermo Fisher, Waltham, MA) with 10% fetal bovine serum (GE Healthcare, Pittsburgh, PA) and 10 μg/mL puromycin (Thermo Fisher, Waltham, MA), and stored in frozen aliquots to be used as assay ready cells. On the day of the assay, cells are removed from frozen storage, washed two times in 1× Kreb's Ringer Buffer (Zenbio, Research Triangle Park, NC), and re-suspended to a concentration of 4×10^6 cells/mL in 1× Kreb's Ringer Buffer. Test compound (50 nL) in 100% DMSO is acoustically dispensed in low volume, white, 384-well polypropylene plates (Corning, Tewksbury, MA), followed by the addition of 4×10^4 cells per well in a total volume of 10 μL. Cells are incubated with test compound for 30 minutes at room temperature in the dark, and cAMP accumulation is measured using the Cisbio HiRange cAMP assay kit (Bedford, MA) per the manufacturer's protocol. Anti-cAMP antibody and d2-cAMP tracer reagents diluted in lysis/detection buffer are incubated in the dark for 1 hour, and results are measured on a Pherastar plate reader (BMG Labtech, Ortenberg, Germany). Data are normalized using 1 μM 5-HT (Sigma Aldrich, St. Louis, MO) as 100% activity, and DMSO alone as 0% activity.
# The ability of the example compounds to activate the 5-HT4(b) receptor was evaluated using the assay described in the Biological Activity section. Table 1, below, lists EC50 from the 5-HT4(b) agonist assay for each of the example compounds, where smaller EC50 values represent higher potency.
# T1 sequence (Q13639 whole entry): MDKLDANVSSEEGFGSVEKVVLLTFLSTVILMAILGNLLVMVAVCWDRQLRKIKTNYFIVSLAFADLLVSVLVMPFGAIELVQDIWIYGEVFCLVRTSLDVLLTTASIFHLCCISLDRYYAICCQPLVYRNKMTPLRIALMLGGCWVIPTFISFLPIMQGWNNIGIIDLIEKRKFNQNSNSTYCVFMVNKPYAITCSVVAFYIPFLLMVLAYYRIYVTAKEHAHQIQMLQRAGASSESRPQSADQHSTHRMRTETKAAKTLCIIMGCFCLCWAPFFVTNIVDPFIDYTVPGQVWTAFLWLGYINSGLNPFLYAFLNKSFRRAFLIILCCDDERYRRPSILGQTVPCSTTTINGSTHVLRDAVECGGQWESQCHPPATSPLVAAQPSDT
row,Structure (SMILES),EC50
1,"Nc1c(Cl)cc(C(=O)NCC2CCN(CC3CCN(CCCCCCCCC(=O)NC[C@H](O)[C@@H](O)[C@H](O)[C@H](O)CO)CC3)CC2)c2c1CCO2 [Example 35, 4-amino-5-chloro-N-((1-((1-(9-oxo-9-(((2S,3R,4R,5R)-2,3,4,5,6-pentahydroxyhexyl)amino)nonyl)piperidin-4-yl)methyl)piperidin-4-yl)methyl)-2,3-dihydrobenzofuran-7-carboxamide]",2.6 nM
2,"COc1cc(N)c(Cl)cc1C(=O)N[C@@H]1CCN(CCCCCC(=O)NCC(=O)NC[C@H](O)[C@@H](O)[C@H](O)[C@H](O)CO)C[C@@H]1OC [Example 5, 4-amino-5-chloro-2-methoxy-N-((3S,4R)-3-methoxy-1-(6-oxo-6-((2-oxo-2-(((2S,3R,4R,5R)-2,3,4,5,6-pentahydroxyhexyl)amino)ethyl)amino)hexyl)piperidin-4-yl)benzamide]",13.2 nM
3,"COc1cc(N)c(Cl)cc1C(=O)N[C@@H]1CCN(CCCCCC(=O)NCCCCCCCC(=O)N(CCP(=O)(O)O)C[C@H](O)[C@@H](O)[C@H](O)[C@H](O)CO)C[C@@H]1OC [Example 26, (2-(8-(6-((3S,4R)-4-(4-amino-5-chloro-2-methoxybenzamido)-3-methoxypiperidin-1-yl)hexanamido)-N-((2S,3R,4R,5R)-2,3,4,5,6-pentahydroxyhexyl)octanamido)ethyl)phosphonic acid]",131 nM
4,"COc1cc(N)c(Cl)cc1C(=O)N[C@@H]1CCN(CCCCCC(=O)NCCCCCCCC(=O)NCCP(=O)(O)O)C[C@@H]1OC [Example 25, (2-(8-(6-((3S,4R)-4-(4-amino-5-chloro-2-methoxybenzamido)-3-methoxypiperidin-1-yl)hexanamido)octanamido)ethyl)phosphonic acid]",115 nM
5,"COc1cc(N)c(Cl)cc1C(=O)N[C@@H]1CCN(CCCCCC(=O)N(C)[C@@H]2CCCN(CCCCCC(=O)NC[C@H](O)[C@@H](O)[C@H](O)[C@H](O)CO)C2)C[C@@H]1OC [Example 15, 4-amino-5-chloro-2-methoxy-N-((3S,4R)-3-methoxy-1-(6-(methyl((R)-1-(6-oxo-6-(((2S,3R,4R,5R)-2,3,4,5,6-pentahydroxyhexyl)amino)hexyl)piperidin-3-yl)amino)-6-oxohexyl)piperidin-4-yl)benzamide]",31 nM
6,"Nc1c(Cl)cc(C(=O)NCC2CCN(CC3CCN(CCCCCCC(=O)NC[C@H](O)[C@@H](O)[C@H](O)[C@H](O)CO)CC3)CC2)c2c1CCO2 [Example 37, 4-amino-5-chloro-N-((1-((1-(7-oxo-7-(((2S,3R,4R,5R)-2,3,4,5,6-pentahydroxyhexyl)amino)heptyl)piperidin-4-yl)methyl)piperidin-4-yl)methyl)-2,3-dihydrobenzofuran-7-carboxamide]",2 nM
7,"Nc1c(Cl)cc(C(=O)NCC2CCN(CC3CCN(CCCCCCCCCCC(=O)NC[C@H](O)[C@@H](O)[C@H](O)[C@H](O)CO)CC3)CC2)c2c1CCO2 [Example 36, 4-amino-5-chloro-N-((1-((1-(11-oxo-11-(((2S,3R,4R,5R)-2,3,4,5,6-pentahydroxyhexyl)amino)undecyl)piperidin-4-yl)methyl)piperidin-4-yl)methyl)-2,3-dihydrobenzofuran-7-carboxamide]",2.5 nM
8,"COc1cc(N)c(Cl)cc1C(=O)N[C@@H]1CCN(CCC(C)CCC(=O)NCCCCCCCC(=O)NC[C@H](O)[C@@H](O)[C@H](O)[C@H](O)CO)C[C@@H]1OC (stereo partly drawn) [Example 20, 4-amino-5-chloro-2-methoxy-N-((3S,4R)-3-methoxy-1-(3-methyl-6-oxo-6-((8-oxo-8-(((2S,3R,4R,5R)-2,3,4,5,6-pentahydroxyhexyl)amino)octyl)amino)hexyl)piperidin-4-yl)benzamide]",57.6 nM
9,"COc1cc(N)c(Cl)cc1C(=O)N[C@@H]1CCN(CCCCCC(=O)NCCCCCCCC(=O)NC[C@H](O)[C@@H](O)[C@H](O)[C@H](O)CO)C[C@@H]1OC [Example 2, 4-amino-5-chloro-2-methoxy-N-((3S,4R)-3-methoxy-1-(6-oxo-6-((8-oxo-8-(((2S,3R,4R,5R)-2,3,4,5,6-pentahydroxyhexyl)amino)octyl)amino)hexyl)piperidin-4-yl)benzamide]",21.4 nM
10,"Nc1c(Cl)cc(C(=O)NCC2CCN(CC3CCN(C(=O)CCCCCCC(=O)NC[C@H](O)[C@@H](O)[C@H](O)[C@H](O)CO)CC3)CC2)c2c1CCO2 [Example 40, 4-amino-5-chloro-N-((1-((1-(8-oxo-8-(((2S,3R,4R,5R)-2,3,4,5,6-pentahydroxyhexyl)amino)octanoyl)piperidin-4-yl)methyl)piperidin-4-yl)methyl)-2,3-dihydrobenzofuran-7-carboxamide]",2 nM
11,"COc1cc(N)c(Cl)cc1C(=O)N[C@@H]1CCN(CCCCCC(=O)NCCCC(=O)NC[C@H](O)[C@@H](O)[C@H](O)[C@H](O)CO)C[C@@H]1OC [Example 4, 4-amino-5-chloro-2-methoxy-N-((3S,4R)-3-methoxy-1-(6-oxo-6-((4-oxo-4-(((2S,3R,4R,5R)-2,3,4,5,6-pentahydroxyhexyl)amino)butyl)amino)hexyl)piperidin-4-yl)benzamide]",28.6 nM
12,"COc1cc(N)c(Cl)cc1C(=O)N[C@@H]1CCN(CCCCCC(=O)N(C)[C@@H]2CCCN(CCCCCCCC(=O)NC[C@H](O)[C@@H](O)[C@H](O)[C@H](O)CO)C2)C[C@@H]1OC [Example 14, 4-amino-5-chloro-2-methoxy-N-((3S,4R)-3-methoxy-1-(6-(methyl((R)-1-(8-oxo-8-(((2S,3R,4R,5R)-2,3,4,5,6-pentahydroxyhexyl)amino)octyl)piperidin-3-yl)amino)-6-oxohexyl)piperidin-4-yl)benzamide]",16.8 nM
13,CO[C@H]1CN(CCCCCC(=O)NCCCC(=O)NC[C@H](O)[C@@H](O)[C@H](O)[C@H](O)CO)CC[C@H]1NC(=O)c1cc(Cl)c(N)c2c1OCC2 [Example 46],5.9 nM
14,"COc1cc(N)c(Cl)cc1C(=O)N[C@@H]1CCN(CCCCCC(=O)NCCCCCCCC(=O)N(CCO)C[C@H](O)[C@@H](O)[C@H](O)[C@H](O)CO)C[C@@H]1OC [Example 22, 4-amino-5-chloro-N-((3 S,4R)-1-(6-((8-((2-hydroxyethyl)((2S,3R,4R,5R)-2,3,4,5,6-pentahydroxyhexyl)amino)-8-oxooctyl)amino)-6-oxohexyl)-3-methoxypiperidin-4-yl)-2-methoxybenzamide]",19.1 nM
15,"Nc1c(Cl)cc(C(=O)NC2CCN(CCCCCC(=O)NCCCCCC(=O)NC[C@H](O)[C@@H](O)[C@H](O)[C@H](O)CO)CC2)c2c1CCO2 [Example 33, 4-amino-5-chloro-N-(1-(6-oxo-6-((6-oxo-6-(((2S,3R,4R,5R)-2,3,4,5,6-pentahydroxyhexyl)amino)hexyl)amino)hexyl)piperidin-4-yl)-2,3-dihydrobenzofuran-7-carboxamide]",12.6 nM
16,"COc1cc(N)c(Cl)cc1C(=O)N[C@@H]1CCN(CCCCCC(=O)NCCCCCC(=O)NC[C@H](O)[C@@H](O)[C@H](O)[C@H](O)CO)C[C@@H]1OC [Example 3, 4-amino-5-chloro-2-methoxy-N-((3S,4R)-3-methoxy-1-(6-oxo-6-((6-oxo-6-(((2S,3R,4R,5R)-2,3,4,5,6-pentahydroxyhexyl)amino)hexyl)amino)hexyl)piperidinyl)benzamide]",22.3 nM
17,"COc1cc(N)c(Cl)cc1C(=O)N[C@@H]1CCN(CCCCCC(=O)NCCOCCOCCOCCC(=O)NC[C@H](O)[C@@H](O)[C@H](O)[C@H](O)CO)C[C@@H]1OC [Example 6, 4-amino-5-chloro-2-methoxy-N-((3S,4R)-3-methoxy-1-((22S,23R,24R,25R)-22,23,24,25,26-pentahydroxy-6,19-dioxo-10,13,16-trioxa-7,20-diazahexacosyl)piperidin-4-yl)benzamide]",22.2 nM
18,"COc1cc(N)c(Cl)cc1C(=O)N[C@@H]1CCN(CCCCCC(=O)N(C)CCCCCCCC(=O)NC[C@H](O)[C@@H](O)[C@H](O)[C@H](O)CO)C[C@@H]1OC [Example 16, 4-amino-5-chloro-2-methoxy-N-((3S,4R)-3-methoxy-1-(6-(methyl(8-oxo-8-(((2S,3R,4R,5R)-2,3,4,5,6-pentahydroxyhexyl)amino)octyl)amino)-6-oxohexyl)piperidin-4-yl)benzamide]",43.3 nM
19,"COc1cc(N)c(Cl)cc1C(=O)N[C@@H]1CCN(CCOCCC(=O)NCCCCCCCC(=O)NC[C@H](O)[C@@H](O)[C@H](O)[C@H](O)CO)C[C@@H]1OC [Example 17, 4-amino-5-chloro-2-methoxy-N-((3S,4R)-3-methoxy-1-(2-(3-oxo ((8-oxo-8-(((2S,3R,4R,5R)-2,3,4,5,6-pentahydroxyhexyl)amino)octyl)amino)propoxy)ethyl)piperidin-4-yl)benzamide]",202 nM
